Test system: RA patients
Experiment: ApoA-I level (Selectra autoanalyzer), Study 4
Assay type: in vivo, human
Conditions: for ApoA-I level, 4 weeks CFB: 4 weeks change from baseline
Protocol: Randomized double-blind, placebo-controlled add on study in subjects with active RA who have an inadequate response to MTX monotherapy, in combination with methotrexate, administered for 4 weeks in the treatment of subjects with active rheumatoid arthritis who have an inadequate response to methotrexate alone.
Compound 1 (dosed as a [Compound 1:HCl:3H2O]) capsules administered orally in 30 mg, 75 mg, 150 mg, or 300 mg doses per day for 4 weeks.
ApoAI, and ApoB were measured on the Selectra autoanalyzer (Sopachem BV, 44-RI Straat 33, 4051 AP Ochten, The Netherlands). All assays were commercially available from DiaSys Diagnostic Systems GmbH, Alte Strasse 9, 65558 Holzheim, Germany.

O=C(Nc1nc2cccc(-c3ccc(CN4CCS(=O)(=O)CC4)cc3)n2n1)C1CC1 [Compound 1, cyclopropanecarboxylic acid {5-[4-(1,1-dioxo-thiomorpholin-4-ylmethyl)-phenyl]-[1,2,4]triazolo[1,5-a]pyridin-2yl}-amide]
ApoA-I level, 4 weeks CFB (30 mg q.d.): 5.2% | ApoA-I level, Baseline (30 mg q.d.): 148 mg/dL | ApoA-I level, week 4 (30 mg q.d.): 155 mg/dL | ApoA-I level, 4 weeks CFB (75 mg q.d.): 9.8% | ApoA-I level, Baseline (75 mg q.d.): 142 mg/dL | ApoA-I level, week 4 (75 mg q.d.): 156 mg/dL | ApoA-I level, 4 weeks CFB (150 mg q.d.): 5.5% | ApoA-I level, Baseline (150 mg q.d.): 140 mg/dL | ApoA-I level, week 4 (150 mg q.d.): 147 mg/dL | ApoA-I level, 4 weeks CFB (300 mg q.d.): 27.9% | ApoA-I level, Baseline (300 mg q.d.): 143 mg/dL | ApoA-I level, week 4 (300 mg q.d.): 179 mg/dL
